From US20230212229A1 (priority 2021, published 2023)
Several values for one entry are separate records, joined by “and”; a condition that tells them apart may be missing. Equal values may be shown once. Read-outs that look alike come from different tables or passages of the source.

Experiments:
SARS-CoV-2 [1] = assay type: in vivo, ACE2 transgenic mice; details: for SARS-CoV-2 copies/μL: lung tissue, 0.5 mg NIP-V injected 1 h before intranasal 1×10^5 TCID50, individual mice n = 8
SARS-CoV-2 [2] = assay type: in vivo, ACE2 transgenic mice; details: lungs 24 h after infection
SARS-CoV-2 S protein = assay type: in vivo, ACE2 transgenic mice; details: 0.5 mg NIP-V; lungs 24 h after infection; versus PBS+SARS-CoV-2
IFN-β = assay type: in vivo, ACE2 transgenic mice; details: for IFN-β in serum: 0.5 mg NIP-V, individual mice n = 8
Ifnb1 mRNA = assay type: in vivo, ACE2 transgenic mice; details: for Ifnb1 mRNA: relative to unstimulated mice, individual mice n = 8
Isg56 mRNA = assay type: in vivo, ACE2 transgenic mice; details: for Isg56 mRNA: relative to unstimulated mice, individual mice n = 8
SARS-CoV-2 genomic RNA = test: qPCR of the load of SARS-CoV-2 genomic RNA in spleen, liver and lung tissues; assay type: in vivo, ACE2 transgenic mice; details: for SARS-CoV-2 genomic RNA: individual mice n = 8
MAVS oligomerization = assay type: cell-based; details: HEK 293T, Myc-NP transfected; 50 μM or 100 μM NIP-V 1 h before SeV stimulation for 8 h
SARS-CoV-2 N protein = details: 0.5 mg NIP-V; lungs 24 h after infection; versus PBS+SARS-CoV-2
[3] = NIP-V treatment versus PBS-treated group

## IHKNLLIVQDKFPPRRRQRRKKRG [NIP-V]
SARS-CoV-2 [1]; NIP-V-treated groups (2 and 4) versus PBS-treated groups, 16 h and 24 h
  SARS-CoV-2 viral load in lung tissue (in words): greatly reduced
SARS-CoV-2 [1]; 16 h after infection
  SARS-CoV-2 copies/μL: 30 copies/μL and 76 copies/μL and 0 copies/μL (3×) and 2484 copies/μL and 131 copies/μL and 726 copies/μL
SARS-CoV-2 [1]; 24 h after infection
  SARS-CoV-2 copies/μL: 3 copies/μL and 0 copies/μL (7×)
SARS-CoV-2 [2]; 0.5 mg NIP-V 1 h before infection, versus PBS+SARS-CoV-2
  lung lesions caused by SARS-CoV-2 infection (HE staining): significantly reduce the lung lesions
SARS-CoV-2 [2]; 0.5 mg NIP-V
  thickening of alveolar septa (HE staining): not significant
SARS-CoV-2 [2]; 0.5 mg NIP-V, versus PBS+SARS-CoV-2 group
  occurrence of hemagglutination and inflammatory cell infiltration (HE staining): significantly lower than that in the PBS+SARS-CoV-2 group
SARS-CoV-2 S protein
  SARS-CoV-2 S protein signal in lung tissue (immunohistochemistry): much lower than that of the PBS+SARS-CoV-2 treated mice
IFN-β; NIP-V-treated groups versus PBS-treated groups, 16 h and 24 h
  content of IFN-β in serum (in words): significantly higher than that in the PBS-treated group
IFN-β; 16 h after SARS-CoV-2 infection
  IFN-β in serum: 52.44 pg/mL and 46.60 pg/mL and 50.21 pg/mL and 75.33 pg/mL and 37.97 pg/mL and 52.98 pg/mL and 68.93 pg/mL and 48.49 pg/mL
IFN-β; 24 h after SARS-CoV-2 infection
  IFN-β in serum: 38.29 pg/mL and 38.61 pg/mL and 34.78 pg/mL and 30.95 pg/mL and 44.88 pg/mL and 37.02 pg/mL and 35.42 pg/mL and 45.20 pg/mL
Ifnb1 mRNA; Liver, 16 h
  Ifnb1 mRNA: 52.55 Fold and 86.45 Fold and 85.91 Fold and 111.15 Fold and 85.02 Fold and 132.00 Fold and 68.88 Fold and 81.36 Fold
Ifnb1 mRNA; Liver, 24 h
  Ifnb1 mRNA: 22.59 Fold and 79.02 Fold and 29.53 Fold and 33.69 Fold and 42.93 Fold and 49.66 Fold and 31.43 Fold and 45.92 Fold
Ifnb1 mRNA; Lung, 16 h
  Ifnb1 mRNA: 186.37 Fold and 302.75 Fold and 202.16 Fold and 145.17 Fold and 113.93 Fold and 133.62 Fold and 259.88 Fold and 148.33 Fold
Ifnb1 mRNA; Lung, 24 h
  Ifnb1 mRNA: 82.49 Fold and 165.42 Fold and 112.99 Fold and 126.62 Fold and 84.22 Fold and 36.61 Fold and 22.54 Fold and 46.19 Fold
Ifnb1 mRNA; [3]
  expression of Ifnb1 mRNA in spleen, liver and lung tissues (in words): increase the expression
Ifnb1 mRNA; Spleen, 16 h
  Ifnb1 mRNA: 87.27 Fold and 42.74 Fold and 73.72 Fold and 58.30 Fold and 67.91 Fold and 98.19 Fold and 64.75 Fold and 70.43 Fold
Ifnb1 mRNA; Spleen, 24 h
  Ifnb1 mRNA: 45.66 Fold and 36.50 Fold and 51.66 Fold and 47.70 Fold and 40.76 Fold and 71.38 Fold and 47.81 Fold and 45.86 Fold
Isg56 mRNA; Liver, 16 h
  Isg56 mRNA: 30.49 Fold and 18.13 Fold and 27.16 Fold and 42.29 Fold and 27.58 Fold and 35.86 Fold and 25.80 Fold and 29.09 Fold
Isg56 mRNA; Liver, 24 h
  Isg56 mRNA: 14.51 Fold and 10.01 Fold and 7.41 Fold and 10.47 Fold and 12.89 Fold and 12.03 Fold and 9.46 Fold and 5.61 Fold
Isg56 mRNA; Lung, 16 h
  Isg56 mRNA: 92.65 Fold and 109.88 Fold and 67.64 Fold and 46.59 Fold and 99.03 Fold and 85.62 Fold and 91.13 Fold and 26.35 Fold
Isg56 mRNA; Lung, 24 h
  Isg56 mRNA: 232.32 Fold and 263.20 Fold and 152.15 Fold and 131.60 Fold and 144.01 Fold and 188.71 Fold and 205.07 Fold and 374.81 Fold
Isg56 mRNA; [3]
  expression of Isg56 mRNA in spleen, liver and lung tissues (in words): increase the expression
Isg56 mRNA; Spleen, 16 h
  Isg56 mRNA: 121.34 Fold and 87.49 Fold and 110.12 Fold and 85.19 Fold and 94.54 Fold and 59.17 Fold and 76.17 Fold and 82.88 Fold
Isg56 mRNA; Spleen, 24 h
  Isg56 mRNA: 73.25 Fold and 63.36 Fold and 55.41 Fold and 62.68 Fold and 45.16 Fold and 32.90 Fold and 56.97 Fold and 36.50 Fold
SARS-CoV-2 genomic RNA; Liver, 16 h
  SARS-CoV-2 genomic RNA: 2.09E+02 Fold and 1.42E+02 Fold and 8.55E+01 Fold and 1.08E+02 Fold and 1.69E+02 Fold and 6.80E+02 Fold and 8.67E+01 Fold and 2.38E+02 Fold
SARS-CoV-2 genomic RNA; Liver, 24 h
  SARS-CoV-2 genomic RNA: 6.41E+01 Fold and 4.17E+01 Fold and 4.33E+01 Fold and 1.70E+02 Fold and 5.83E+01 Fold and 5.13E+01 Fold and 3.93E+01 Fold and 2.38E+01 Fold
SARS-CoV-2 genomic RNA; Lung, 16 h
  SARS-CoV-2 genomic RNA: 5.93E+03 Fold and 4.43E+03 Fold and 2.73E+03 Fold and 1.61E+04 Fold and 1.86E+04 Fold and 1.48E+04 Fold and 8.10E+03 Fold and 3.62E+03 Fold
SARS-CoV-2 genomic RNA; Lung, 24 h
  SARS-CoV-2 genomic RNA: 4.74E+03 Fold and 3.19E+03 Fold and 3.72E+03 Fold and 1.23E+03 Fold and 1.56E+03 Fold and 1.26E+03 Fold and 1.49E+04 Fold and 0.00E+00 Fold
SARS-CoV-2 genomic RNA; Spleen, 16 h
  SARS-CoV-2 genomic RNA: 1.66E+03 Fold and 1.40E+03 Fold and 1.37E+03 Fold and 4.78E+02 Fold and 1.60E+03 Fold and 8.65E+02 Fold and 1.33E+03 Fold and 1.15E+03 Fold
SARS-CoV-2 genomic RNA; Spleen, 24 h
  SARS-CoV-2 genomic RNA: 4.18E+02 Fold and 3.11E+02 Fold and 2.38E+02 Fold and 1.85E+02 Fold and 4.43E+02 Fold and 1.35E+02 Fold and 2.56E+02 Fold and 7.20E+02 Fold
SARS-CoV-2 genomic RNA; spleen, liver and lung, NIP-V treatment versus PBS-treated group
  proliferation of SARS-CoV-2 in tissues (qPCR, in words): inhibit the proliferation of SARS-CoV-2
MAVS oligomerization
  MAVS oligomerization inhibited by SARS-CoV-2 N protein (SDD-PAGE): restore the MAVS oligomerization in a dose-dependent manner
SARS-CoV-2 N protein
  SARS-CoV-2 N protein signal in lung tissue (immunofluorescence): weaker N protein signals can be detected
